From BindingDB's records for doi:10.1111/j.1476-5381.1995.tb15922.x (Syntex Discovery Research, 1995)

Legend:
[1] = target: Mu-type opioid receptor (Rattus norvegicus, UniProt P33535)
[2] = target: T1, 5-hydroxytryptamine receptor 3A (Homo sapiens, UniProt P46098)
T1 sequence (P46098 whole entry): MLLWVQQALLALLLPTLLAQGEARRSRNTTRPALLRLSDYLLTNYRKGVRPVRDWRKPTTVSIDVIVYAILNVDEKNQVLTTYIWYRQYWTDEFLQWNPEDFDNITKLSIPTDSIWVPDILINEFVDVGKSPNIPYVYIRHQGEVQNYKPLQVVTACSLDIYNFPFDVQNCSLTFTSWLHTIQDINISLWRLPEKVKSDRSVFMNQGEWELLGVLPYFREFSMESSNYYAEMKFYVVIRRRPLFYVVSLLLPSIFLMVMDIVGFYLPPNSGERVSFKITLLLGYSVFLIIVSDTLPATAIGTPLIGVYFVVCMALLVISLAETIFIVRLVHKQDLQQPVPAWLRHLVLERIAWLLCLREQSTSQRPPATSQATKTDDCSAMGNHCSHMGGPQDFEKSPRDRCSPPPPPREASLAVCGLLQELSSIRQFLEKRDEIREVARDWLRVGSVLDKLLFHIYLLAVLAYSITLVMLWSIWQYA

[3] = target: D(2) dopamine receptor (Homo sapiens, UniProt P14416)
[4] = target: T2, Alpha-1A adrenergic receptor (Homo sapiens, UniProt P35348)
T2 sequence (P35348 whole entry): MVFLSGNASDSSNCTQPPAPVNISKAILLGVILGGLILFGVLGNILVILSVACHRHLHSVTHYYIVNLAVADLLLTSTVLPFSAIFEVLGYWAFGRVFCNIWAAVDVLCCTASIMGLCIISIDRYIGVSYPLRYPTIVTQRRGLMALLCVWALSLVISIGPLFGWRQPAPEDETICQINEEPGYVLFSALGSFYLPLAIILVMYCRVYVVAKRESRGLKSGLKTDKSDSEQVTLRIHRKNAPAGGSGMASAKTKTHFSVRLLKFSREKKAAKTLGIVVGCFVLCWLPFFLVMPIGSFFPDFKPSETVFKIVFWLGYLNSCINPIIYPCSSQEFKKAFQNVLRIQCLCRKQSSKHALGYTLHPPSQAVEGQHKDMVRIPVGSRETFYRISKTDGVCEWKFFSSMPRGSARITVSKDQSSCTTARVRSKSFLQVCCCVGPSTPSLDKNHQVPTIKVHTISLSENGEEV

[5] = target: D(1A) dopamine receptor (Homo sapiens, UniProt P21728)
[6] = target: T3, B1 bradykinin receptor (Homo sapiens, UniProt P46663)
T3 sequence (P46663 whole entry): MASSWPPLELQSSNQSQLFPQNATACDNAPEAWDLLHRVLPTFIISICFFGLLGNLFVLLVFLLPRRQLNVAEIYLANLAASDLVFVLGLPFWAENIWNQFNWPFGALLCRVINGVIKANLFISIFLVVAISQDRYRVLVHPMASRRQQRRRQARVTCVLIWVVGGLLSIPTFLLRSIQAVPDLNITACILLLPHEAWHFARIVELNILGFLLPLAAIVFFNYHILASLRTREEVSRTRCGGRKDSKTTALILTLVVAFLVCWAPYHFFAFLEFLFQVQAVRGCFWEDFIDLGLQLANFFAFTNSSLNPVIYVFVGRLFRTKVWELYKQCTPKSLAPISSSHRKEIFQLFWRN

[7] = target: T4, Muscarinic acetylcholine receptor M2 (Homo sapiens, UniProt P08172)
T4 sequence (P08172 whole entry): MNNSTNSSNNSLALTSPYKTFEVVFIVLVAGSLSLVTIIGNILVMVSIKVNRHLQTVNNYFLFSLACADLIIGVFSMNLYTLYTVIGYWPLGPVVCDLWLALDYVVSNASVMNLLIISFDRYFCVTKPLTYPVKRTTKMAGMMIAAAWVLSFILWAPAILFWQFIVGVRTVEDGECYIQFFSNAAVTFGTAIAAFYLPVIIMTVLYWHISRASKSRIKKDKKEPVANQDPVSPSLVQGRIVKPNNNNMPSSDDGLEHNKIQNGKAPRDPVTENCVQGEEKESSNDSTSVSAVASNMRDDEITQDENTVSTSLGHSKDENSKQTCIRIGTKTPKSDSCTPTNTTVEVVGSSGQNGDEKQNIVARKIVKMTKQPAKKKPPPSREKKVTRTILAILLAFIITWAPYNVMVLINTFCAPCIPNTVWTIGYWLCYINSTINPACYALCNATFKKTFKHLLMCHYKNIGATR

[8] = target: T5, Muscarinic acetylcholine receptor M1 (Homo sapiens, UniProt P11229)
T5 sequence (P11229 whole entry): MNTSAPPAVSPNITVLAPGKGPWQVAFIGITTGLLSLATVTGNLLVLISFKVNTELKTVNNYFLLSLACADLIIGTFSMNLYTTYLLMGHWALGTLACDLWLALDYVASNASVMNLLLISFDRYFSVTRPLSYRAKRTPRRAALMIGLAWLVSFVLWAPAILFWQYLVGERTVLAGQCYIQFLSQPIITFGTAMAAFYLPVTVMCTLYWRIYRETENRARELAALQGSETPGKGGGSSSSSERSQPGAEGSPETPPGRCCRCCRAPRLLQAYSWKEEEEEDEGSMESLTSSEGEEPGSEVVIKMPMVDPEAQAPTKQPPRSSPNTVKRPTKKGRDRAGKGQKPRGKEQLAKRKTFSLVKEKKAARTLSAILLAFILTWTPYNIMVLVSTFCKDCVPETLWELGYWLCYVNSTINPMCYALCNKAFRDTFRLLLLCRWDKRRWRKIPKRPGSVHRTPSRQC

[9] = target: 5-hydroxytryptamine receptor 4 (Cavia porcellus, UniProt O70528)
[10] = target: T6, Type-1 angiotensin II receptor (Xenopus tropicalis, UniProt B3DLC0)
T6 sequence (B3DLC0 whole entry): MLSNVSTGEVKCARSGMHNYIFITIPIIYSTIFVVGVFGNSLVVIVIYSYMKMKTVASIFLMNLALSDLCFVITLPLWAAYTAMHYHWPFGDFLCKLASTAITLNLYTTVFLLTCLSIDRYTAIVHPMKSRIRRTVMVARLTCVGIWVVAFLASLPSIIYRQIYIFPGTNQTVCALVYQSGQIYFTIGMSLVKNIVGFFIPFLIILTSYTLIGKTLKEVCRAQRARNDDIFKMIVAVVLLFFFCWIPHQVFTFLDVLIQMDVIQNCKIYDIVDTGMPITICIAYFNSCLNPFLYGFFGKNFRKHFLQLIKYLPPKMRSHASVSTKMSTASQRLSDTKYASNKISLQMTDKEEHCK

[11] = target: Glutamate receptor ionotropic, NMDA 1 (Rattus norvegicus, UniProt P35439)
[12] = target: T7, 5-hydroxytryptamine receptor 2C (Homo sapiens, UniProt P28335)
T7 sequence (P28335 whole entry): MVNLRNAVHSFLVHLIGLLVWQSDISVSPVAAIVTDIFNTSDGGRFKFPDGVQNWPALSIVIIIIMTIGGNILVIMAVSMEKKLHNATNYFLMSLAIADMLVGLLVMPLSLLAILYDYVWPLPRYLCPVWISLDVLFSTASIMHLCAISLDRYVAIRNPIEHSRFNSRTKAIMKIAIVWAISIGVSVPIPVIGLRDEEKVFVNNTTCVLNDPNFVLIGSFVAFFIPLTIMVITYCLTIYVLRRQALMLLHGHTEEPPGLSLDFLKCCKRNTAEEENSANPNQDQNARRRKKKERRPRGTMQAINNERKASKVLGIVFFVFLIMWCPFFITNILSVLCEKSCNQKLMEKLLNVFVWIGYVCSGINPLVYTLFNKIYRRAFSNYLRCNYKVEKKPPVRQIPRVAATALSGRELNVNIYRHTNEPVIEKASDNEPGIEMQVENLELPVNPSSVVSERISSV

Sequence of Mu-type opioid receptor (P33535 whole entry): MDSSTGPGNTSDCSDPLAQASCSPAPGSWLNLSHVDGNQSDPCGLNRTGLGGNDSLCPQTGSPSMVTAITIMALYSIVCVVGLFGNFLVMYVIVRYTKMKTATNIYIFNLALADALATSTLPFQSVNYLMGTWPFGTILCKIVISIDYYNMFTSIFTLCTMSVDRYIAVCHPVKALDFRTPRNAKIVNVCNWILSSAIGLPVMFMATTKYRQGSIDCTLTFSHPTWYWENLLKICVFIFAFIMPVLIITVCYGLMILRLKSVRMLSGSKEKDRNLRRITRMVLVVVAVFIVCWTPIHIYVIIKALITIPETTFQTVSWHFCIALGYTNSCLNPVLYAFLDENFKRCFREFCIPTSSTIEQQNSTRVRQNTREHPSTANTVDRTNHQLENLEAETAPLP
Sequence of D(1A) dopamine receptor (P21728 whole entry): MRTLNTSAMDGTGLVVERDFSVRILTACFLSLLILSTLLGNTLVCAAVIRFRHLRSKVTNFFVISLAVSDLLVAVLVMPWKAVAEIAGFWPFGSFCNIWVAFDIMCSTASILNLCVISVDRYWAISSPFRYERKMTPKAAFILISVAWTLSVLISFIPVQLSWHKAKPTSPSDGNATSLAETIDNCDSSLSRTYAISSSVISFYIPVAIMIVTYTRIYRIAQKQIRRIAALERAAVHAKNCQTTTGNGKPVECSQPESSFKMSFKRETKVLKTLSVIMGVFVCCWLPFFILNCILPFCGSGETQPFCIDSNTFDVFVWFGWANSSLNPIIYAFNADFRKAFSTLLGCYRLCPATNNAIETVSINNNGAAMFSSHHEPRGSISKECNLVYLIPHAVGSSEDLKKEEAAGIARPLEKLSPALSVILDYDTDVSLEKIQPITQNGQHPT
Sequence of 5-hydroxytryptamine receptor 4 (O70528 whole entry): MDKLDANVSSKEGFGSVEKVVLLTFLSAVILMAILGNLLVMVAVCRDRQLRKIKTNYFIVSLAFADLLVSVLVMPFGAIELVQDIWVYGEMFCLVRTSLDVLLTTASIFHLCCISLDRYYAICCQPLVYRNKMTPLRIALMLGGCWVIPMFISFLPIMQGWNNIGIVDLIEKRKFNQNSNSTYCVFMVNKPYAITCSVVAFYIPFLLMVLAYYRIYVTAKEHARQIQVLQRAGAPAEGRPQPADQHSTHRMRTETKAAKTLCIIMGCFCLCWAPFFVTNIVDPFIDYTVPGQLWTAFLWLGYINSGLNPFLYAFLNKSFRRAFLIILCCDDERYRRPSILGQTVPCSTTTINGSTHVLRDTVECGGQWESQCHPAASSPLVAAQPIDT
Sequence of D(2) dopamine receptor (P14416 whole entry): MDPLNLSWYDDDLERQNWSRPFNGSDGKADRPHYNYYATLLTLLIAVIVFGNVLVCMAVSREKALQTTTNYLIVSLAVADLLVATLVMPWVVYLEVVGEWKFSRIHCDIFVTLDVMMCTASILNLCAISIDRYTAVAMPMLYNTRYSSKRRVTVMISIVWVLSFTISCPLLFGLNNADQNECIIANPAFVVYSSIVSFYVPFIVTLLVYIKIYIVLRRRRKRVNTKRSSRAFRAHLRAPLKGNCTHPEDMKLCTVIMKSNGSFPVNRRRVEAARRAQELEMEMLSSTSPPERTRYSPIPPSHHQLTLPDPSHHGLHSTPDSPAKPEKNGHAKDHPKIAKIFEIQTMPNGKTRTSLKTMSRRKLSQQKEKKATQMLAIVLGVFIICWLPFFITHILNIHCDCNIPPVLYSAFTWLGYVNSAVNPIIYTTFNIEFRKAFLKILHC

Compound: COc1cc(COc2cc(N)c(Cl)cc2C(=O)CCC2CCN(CCNS(C)(=O)=O)CC2)cc(OC)c1 [CAS_167710-87-4]
- Ki [1]: 1000 nM
- Ki [2]: 1000 nM
- Ki [3]: 1000 nM
- Ki [4]: 398 nM
- Ki [5]: 1000 nM
- Ki [6]: > 10000 nM
- Ki [7]: 1000 nM
- Ki [8]: 1000 nM
- Ki [9]: 0.79 nM
- Ki [10]: > 10000 nM
- Ki [11]: 1000 nM
- Ki [12]: 794 nM
